Reference: US9399631B2, “Polyphenol proteasome inhibitors, synthesis, and methods of use” (UNIVERSITY OF SOUTH FLORIDA, priority 2003, dated 2016)

What was measured:
Type in all cases: cell-based, human
[1] = system: LNCaP cells; experiment: Soft agar colony formation assay; conditions: 10 μM, 14 day-incubation
Outline: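 2×10^4 human prostate cancer cells seeded in 0.3% top agar over a 0.6% agar layer (DMEM, 10% FBS) together with analogs at 50 μM or 10 μM, or solvent control. Incubated 14 days at 37 °C, 5% CO2, then stained overnight with MTT (1 mg/ml). Colonies counted; means of triplicate independent experiments ± SD.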

[2] = system: LNCaP cells; experiment: Western blot of proteasome target proteins in LNCaP cells; conditions: for increase of IκB-α levels / increase of p27 levels / Bax protein levels / apoptosis-specific PARP cleavage: 10 μM; for increase of IκB-α levels / increase of p27 levels: 12 hour treatment; for Bax protein levels / apoptosis-specific PARP cleavage: 24 hours
Outline: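 LNCaP cells exposed to 25 μM (−)- or (+)-EGCG-amide for up to 9 h, or synthetic analogs for indicated hours. Whole-cell extracts (60 μg protein) probed by ECL Western blot for p27, IκB-α, Bax and polyubiquitinated proteins; p27 or IκB-α quantified as ratio to actin band intensity.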

[3] = system: LNCaP cells; experiment: Flow cytometry cell cycle analysis, LNCaP cells; conditions: 10 μM, 24 hours
Procedure: Flow Cytometry. Cell cycle analysis based on DNA content was performed as in An et al. (An, B. et al. Cell Death Differ, 1998, 5:1062-75). At each time point, cells were harvested, counted, and washed twice with PBS. Cells (5×10^6) were suspended in 0.5 ml PBS, fixed in 5 ml of 70% ethanol overnight at −20° C., centrifuged, resuspended again in 1 ml of propidium iodide staining solution (50 μg propidium iodide, 100 units RNase A and 1 mg glucose per ml PBS), and incubated at room temperature for 30 minutes. The cells were then analyzed with FACScan (Becton Dickinson Immunocytometry, Calif.), ModFit LT and WinMDI V.2.8 cell cycle analysis software (Verity Software; Topsham, Me.). The cell cycle distribution is shown as the percentage of cells containing G1, S, G2, and M phase DNA judged by propidium iodide staining The apoptotic population is determined as the percentage of cells with sub-G1 DNA content (<G1).
It has been shown that overexpression of p27 and IκB-α results in G1 arrest. If increased levels of these proteasome target proteins by synthetic GTPs are functional, it would be expected to see growth arrest of tumor cells in G1 phase. To test this hypothesis, asynchronous prostate LNCaP cells were treated with 10 μM of synthetic (+)-EGCG or (+)-GCG, along with each respective natural GTP as control, for 24 hours. Cells were then harvested, and analyzed by cell cycle analysis by flow cytometry. […] Growth arrest was determined by the increase in the percentage of the G1 population.

Compound | inhibition of colony formation [1] | increase of IκB-α levels [2] | increase of p27 levels [2] | Bax protein levels [2] | apoptosis-specific PARP cleavage [2] | increase in G1 arrest as compared to (−)-EGCG [3] | increase of G1 population (G1 arrest) [3] | inhibition at 10 µM ([1]; Homo sapiens, LNCaP, 336 h) | levels of Bax protein ([2]; 50 μM, 3 to 12 hours) | levels of p27, IκB-α and Bax ([2]; 25 μM, up to 9 hours)
O=C(OC1Cc2c(O)cc(O)cc2OC1c1cc(O)c(O)c(O)c1)c1cc(O)c(O)c(O)c1 (single isomer, unassigned; (+)) [(+)-EGCG] | 99.5% | 2.6 fold | 3.1 fold | significantly increased Bax protein levels | induced the apoptosis-specific PARP cleavage | approximately 30% | 18% |  |  | 
O=C(OC1Cc2c(O)cc(O)cc2OC1c1cc(O)c(O)c(O)c1)c1cc(O)c(O)c(O)c1 (single isomer, unassigned; (+)) [(+)-GCG] |  | 3.7 fold | 5.8 fold |  |  |  | ~14% | 91.5% |  | 
O=C(O[C@@H]1Cc2c(O)cc(O)cc2O[C@@H]1c1cc(O)c(O)c(O)c1)c1cc(O)c(O)c(O)c1 [(−)-EGCG, (−)-epigallocatechin-3-gallate, reference compound] | 99.0% |  |  | significantly increased Bax protein levels | induced the apoptosis-specific PARP cleavage |  | ~14% |  | increased only at 12 hours | 
O=C(N[C@@H]1Cc2c(O)cc(O)cc2O[C@@H]1c1cc(O)c(O)c(O)c1)c1cc(O)c(O)c(O)c1 [(−)-EGCG-amide, (−)-[2R,3R]-N-[5,7-Dihydroxy-2-(3,4,5-trihydroxyphenyl)-chroman-3-yl]-3,4,5-trihydroxybenzamide] |  |  |  |  |  |  |  |  |  | able to increase levels of p27, IκB-α and Bax by 3 hours
